According to paper PMC7377239, “Cardiovascular Effects of Polychlorinated Biphenyls and Their Major Metabolites” (Environmental Health Perspectives, 2020):
Structures can show the parent of a compound that is named as a salt. Where two headings read alike, the source gives them in different places.

Test system: iCell cardiomyocytes (human iPSC-derived cardiomyocytes)
Assay: High-content imaging of cytotoxicity and mitochondrial integrity in iPSC-CMs
Format: cell-based
Details: Homo sapiens; for viability at 0.01 µM / activity at 0.01 µM / viability at 0.1 µM / activity at 0.1 µM / viability at 1 µM / activity at 1 µM / viability at 10 µM / activity at 10 µM / viability at 100 µM / activity at 100 µM: 0.00 µM = 100.00; for viability at 0.1 µM / activity at 0.1 µM: 0.10 µM
Outline: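 Readouts from high-content images were normalized to vehicle controls containing 0.5% vol/vol DMSO. They were fit to a four-parameter logistic model in R. Points of departure were set using a cutoff of one standard deviation across vehicle control means. Where no concentration–response was seen, the top tested concentration of 100μM was assigned as the no observable adverse effect level.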

[1] = Cardiomyocyte, 1.5 h, read-out: cm.cam.90min
[2] = Cardiomyocyte, 1.5 h, read-out: cm.mii.90min
[3] = Cardiomyocyte, 1.5 h, read-out: cm.mito.90min
[4] = Cardiomyocyte, 1.5 h, read-out: cm.tc.90min
[5] = Cardiomyocyte, 24 h, read-out: cm.cam.24hrs
[6] = Cardiomyocyte, 24 h, read-out: cm.mii.24hrs
[7] = Cardiomyocyte, 24 h, read-out: cm.mito.24hrs
[8] = Cardiomyocyte, 24 h, read-out: cm.tc.24hrs
[9] = iPSC-CM, 1.5 h, iPSC-CM, read-out: cm.cam.90min POD
[10] = iPSC-CM, 1.5 h, iPSC-CM, read-out: cm.mii.90min POD
[11] = iPSC-CM, 1.5 h, iPSC-CM, read-out: cm.mito.90min POD
[12] = iPSC-CM, 1.5 h, iPSC-CM, read-out: cm.tc.90min POD
[13] = iPSC-CM, 24 h, iPSC-CM, read-out: cm.cam.24hrs POD
[14] = iPSC-CM, 24 h, iPSC-CM, read-out: cm.mii.24hrs POD
[15] = iPSC-CM, 24 h, iPSC-CM, read-out: cm.mito.24hrs POD
[16] = iPSC-CM, 24 h, iPSC-CM, read-out: cm.tc.24hrs POD
[17] = Cardiomyocyte, 1.5 h, cardiomyocytes (cm), cam, 90 min, read-out: POD cm.cam.90min
[18] = Cardiomyocyte, 1.5 h, cardiomyocytes (cm), mii, 90 min, read-out: POD cm.mii.90min
[19] = Cardiomyocyte, 1.5 h, cardiomyocytes (cm), mito, 90 min, read-out: POD cm.mito.90min
[20] = Cardiomyocyte, 1.5 h, cardiomyocytes (cm), tc, 90 min, read-out: POD cm.tc.90min
[21] = Cardiomyocyte, 24 h, cardiomyocytes (cm), cam, 24 hrs, read-out: POD cm.cam.24hrs
[22] = Cardiomyocyte, 24 h, cardiomyocytes (cm), mii, 24 hrs, read-out: POD cm.mii.24hrs
[23] = Cardiomyocyte, 24 h, cardiomyocytes (cm), mito, 24 hrs, read-out: POD cm.mito.24hrs
[24] = Cardiomyocyte, 24 h, cardiomyocytes (cm), tc, 24 hrs, read-out: POD cm.tc.24hrs

**Q.** With `Oc1cccc(-c2ccc(Cl)cc2)c1` [3'-OH PCB3] as the compound, how does the viability at 0.01 µM [1] read?
**A.** 101%

**Q.** What about the activity at 0.01 µM [2] of the same compound?
**A.** 109%

**Q.** What about the activity at 0.01 µM [3] of the same compound?
**A.** 101%

**Q.** What about the viability at 0.01 µM [4] of the same compound?
**A.** 101%

**Q.** What about the viability at 0.1 µM [1] of the same compound?
**A.** 96.5%

**Q.** And the activity at 0.1 µM [2]?
**A.** 107%

**Q.** And the activity at 0.1 µM [3]?
**A.** 96.4%

**Q.** What about the viability at 0.1 µM [4] of the same compound?
**A.** 96.6%

**Q.** What about the viability at 1 µM [1] of the same compound?
**A.** 103%

**Q.** And the activity at 1 µM [2]?
**A.** 98.4%

**Q.** And the activity at 1 µM [3]?
**A.** 103%

**Q.** And the viability at 1 µM [4]?
**A.** 103%

**Q.** What about the viability at 10 µM [1] of the same compound?
**A.** 99.4%

**Q.** And the activity at 10 µM [2]?
**A.** 106%

**Q.** What about the activity at 10 µM [3] of the same compound?
**A.** 99.2%

**Q.** What about the viability at 10 µM [4] of the same compound?
**A.** 99.2%

**Q.** What about the viability at 100 µM [1] of the same compound?
**A.** 0%

**Q.** And the activity at 100 µM [2]?
**A.** 0%

**Q.** And the activity at 100 µM [3]?
**A.** 0%

**Q.** What about the viability at 100 µM [4] of the same compound?
**A.** 0%

**Q.** And the viability at 0.01 µM [5]?
**A.** 91.7%

**Q.** And the activity at 0.01 µM [6]?
**A.** 99.6%

**Q.** What about the activity at 0.01 µM [7] of the same compound?
**A.** 88.3%

**Q.** What about the viability at 0.01 µM [8] of the same compound?
**A.** 91.6%

**Q.** What about the viability at 0.1 µM [5] of the same compound?
**A.** 99.1%

**Q.** What about the activity at 0.1 µM [6] of the same compound?
**A.** 109%

**Q.** And the activity at 0.1 µM [7]?
**A.** 97.5%

**Q.** What about the viability at 0.1 µM [8] of the same compound?
**A.** 98.9%

**Q.** What about the viability at 1 µM [5] of the same compound?
**A.** 104%

**Q.** And the activity at 1 µM [6]?
**A.** 92.4%

**Q.** What about the activity at 1 µM [7] of the same compound?
**A.** 101%

**Q.** What about the viability at 1 µM [8] of the same compound?
**A.** 104%

**Q.** What about the viability at 10 µM [5] of the same compound?
**A.** 98%

**Q.** What about the activity at 10 µM [6] of the same compound?
**A.** 98.8%

**Q.** And the activity at 10 µM [7]?
**A.** 97.5%

**Q.** What about the viability at 10 µM [8] of the same compound?
**A.** 98.6%

**Q.** What about the viability at 100 µM [5] of the same compound?
**A.** 0.0471%

**Q.** And the activity at 100 µM [6]?
**A.** 0%

**Q.** And the activity at 100 µM [7]?
**A.** 0%

**Q.** And the viability at 100 µM [8]?
**A.** 0.09%

**Q.** What about the minimal effective concentration [9] of the same compound?
**A.** 16 µM

**Q.** What about the minimal effective concentration [10] of the same compound?
**A.** 35 µM

**Q.** What about the minimal effective concentration [11] of the same compound?
**A.** 15 µM

**Q.** And the minimal effective concentration [12]?
**A.** 14.8 µM

**Q.** What about the minimal effective concentration [13] of the same compound?
**A.** 14.1 µM

**Q.** And the minimal effective concentration [14]?
**A.** 23 µM

**Q.** What about the minimal effective concentration [15] of the same compound?
**A.** 14 µM

**Q.** And the minimal effective concentration [16]?
**A.** 15.6 µM

**Q.** Which minimal effective concentration [17] does the source give for `Oc1cccc(-c2ccc(Cl)cc2)c1` [3'-OH-PCB 3] here?
**A.** 16 µM

**Q.** And the minimal effective concentration [18]?
**A.** 35 µM

**Q.** What about the minimal effective concentration [19] of the same compound?
**A.** 15 µM

**Q.** And the minimal effective concentration [20]?
**A.** 14.8 µM

**Q.** And the minimal effective concentration [21]?
**A.** 14.1 µM

**Q.** What about the minimal effective concentration [22] of the same compound?
**A.** 23 µM

**Q.** And the minimal effective concentration [23]?
**A.** 14 µM

**Q.** What about the minimal effective concentration [24] of the same compound?
**A.** 15.6 µM

**Q.** Which results are given for `O=S(=O)(O)Oc1cccc(-c2ccc(Cl)cc2)c1` [3'-PCB 3 sulfate]?
**A.** minimal effective concentration [17]: 100 µM; minimal effective concentration [18]: 89.9 µM; minimal effective concentration [19]: 100 µM; minimal effective concentration [20]: 100 µM; minimal effective concentration [21]: 100 µM; minimal effective concentration [22]: 100 µM; minimal effective concentration [23]: 100 µM; minimal effective concentration [24]: 100 µM

**Q.** What does the source list for `O=S(=O)(O)Oc1cccc(-c2ccc(Cl)cc2)c1` [3'-yl PCB 3 sulfate]?
**A.** viability at 0.01 µM [1]: 99.5%; activity at 0.01 µM [2]: 98.4%; activity at 0.01 µM [3]: 99.8%; viability at 0.01 µM [4]: 99.9%; viability at 0.1 µM [1]: 98.2%; activity at 0.1 µM [2]: 97.1%; activity at 0.1 µM [3]: 98.3%; viability at 0.1 µM [4]: 98.4%; viability at 1 µM [1]: 102%; activity at 1 µM [2]: 99.8%; activity at 1 µM [3]: 102%; viability at 1 µM [4]: 102%; viability at 10 µM [1]: 95.4%; activity at 10 µM [2]: 104%; activity at 10 µM [3]: 95.4%; viability at 10 µM [4]: 95.3%; viability at 100 µM [1]: 99%; activity at 100 µM [2]: 91.3%; activity at 100 µM [3]: 99.3%; viability at 100 µM [4]: 99.3%; viability at 0.01 µM [5]: 97.1%; activity at 0.01 µM [6]: 93.8%; activity at 0.01 µM [7]: 95.4%; viability at 0.01 µM [8]: 98%; viability at 0.1 µM [5]: 105%; activity at 0.1 µM [6]: 89.9%; activity at 0.1 µM [7]: 105%; viability at 0.1 µM [8]: 105%; viability at 1 µM [5]: 101%; activity at 1 µM [6]: 100%; activity at 1 µM [7]: 99.9%; viability at 1 µM [8]: 102%; viability at 10 µM [5]: 103%; activity at 10 µM [6]: 79.2%; activity at 10 µM [7]: 104%; viability at 10 µM [8]: 103%; viability at 100 µM [5]: 97%; activity at 100 µM [6]: 88.7%; activity at 100 µM [7]: 97.8%; viability at 100 µM [8]: 97.2%; minimal effective concentration [9]: 100 µM; minimal effective concentration [10]: 89.9 µM; minimal effective concentration [11]: 100 µM; minimal effective concentration [12]: 100 µM; minimal effective concentration [13]: 100 µM; minimal effective concentration [14]: 100 µM; minimal effective concentration [15]: 100 µM; minimal effective concentration [16]: 100 µM
